These results are taken from US20190010524A1, “BIOLOGICAL METHODS FOR PREPARING A FATTY DICARBOXYLIC ACID” (Verdezyne, Inc., priority 2012, published 2019).

Series [1] has as its system Candida. The settings on record: stated as background; cited from earlier work.
Series [2] deals with strain sAA1082. As to conditions: ethanol co-feed 0.7 g/L-h. How it is done: Fermentation medium (MM1) at pH 5.8 was filter sterilized and transferred to a sterile fermentation vessel. For the control, dextrose was used for both growth and co-feed. For the experimental fermentations, glycerol or xylose was substituted oh a g/g basis for dextrose in both the growth medium (MM1) and in the co-feed. Growth was initiated with an inoculum of pre-culture to an initial OD600nm=1.0 and growth conditions of 35° C., 1000 rpm, 1 vvm, pH 5.8. Growth continued for approximately 10-12 h at which point the conversion phase was initiated by a continuous feed of methyl laurate. Methyl laurate was fed at a rate of 0.7 g/L-h for the first 24 h; 1.2 g/L-h from 24 h to termination. In addition, a co-feed of ethanol was fed at a rate of 0.7 g/L-h. The ethanol feed-rate was reduced relative to what would normally be used for glucose (1.2 g/l-h), since ethanol is theoretically a more energy-rich compound. At induction, the temperature was changed to 30° C. and the pH was maintained at 6.0 by addition of 6N KOH.

For series [3], the system named is Candida strain ATCC 20962. Nature of the series: Bioreactor conversion of ethyl decanoate to sebacic acid (Example 73). The class given is cell-based. As to conditions: decane induction. Here is the method:
(§1) By conversion tests for ethyl decanoate were performed in 0.5 L Infors HT Multifors bioreactors (Infors AG, Switzerland) with working volumes of 0.4 L each. […] Fermentation medium. […] Bioreactors were equipped with two rushton impellers rotating at 1000 rpm. Bioreactors were inoculated to an OD of approximately 0.2 and growth continued for approximately 12-14 hours, at which point the conversion phase was initiated by evenly space boluses of ethyl decanoate. Culture pH was kept constant at 5.8 during the growth phase by automatic addition of 6 N KOH and temperature and airflow were controlled at 30° C. and 1 vvm respectively.
(§2) At induction, the pH was changed to 6.2 and maintained by addition of 6N KOH. Bioreactors were induced with an initial 4.0 ml bolus of decane for 6 hours with an airflow rate of 0.25 vvm to minimize evaporation.
Following this initial 6 hour induction, airflow was increased to 1 vvm and 58 μl of ethyl decanoate was added every 30 minutes for the next 6 hours. Ethyl decanoate boluses were then increased to 116 μl at a frequency of once per hour for the next 36 hours. In addition, a co-feed of dextrose was fed at a rate of 1.25 g/L-h. Final samples were taken 12 hours after the final ethyl decanoate bolus. […]

Series [4] has as its system strain sAA1082. Described as above. The class given is cell-based, Candida. Here is the method: as §1, §2
(§3) Following this initial 6 hour induction, airflow was increased to 1 vvm and 58 μl of ethyl decanoate was added every 30 minutes for the next 6 hours. Ethyl decanoate boluses were then increased to 116 μl at a frequency of once per hour for the next 36 hours. In addition, a co-feed of dextrose was fed at a rate of 1.25 g/L-h. Final samples were taken 12 hours after the final ethyl decanoate bolus. Yield calculations were made for all cultures taking only added ethyl decanoate into account due to the volatility of decane and the lack of decanedioic acid formation following the initial induction period.

A further series has as its system strain sAA2178. The series is described as above. The series is classed as cell-based, Candida. Here is the method: as §1, §2, §3
The subject of series [5] is Candida tropicalis (ATCC20962). In words: Fermentation procedure for conversion of decane to sebacic acid (Example 3). As to conditions: GC at 44 hours after initiating the conversion phase, FIG. 16. The series is classed as cell-based. How it is done:
Filter sterilized modified SP92-glycerol fermentation medium (6.7 g/L yeast nitrogen base, 3.0 g/L yeast extract, 3.0 g/L (NH4)2SO4, 1.0 g/L K2HPO4, 1.0 g/L KH2PO4, 20 g/L glycerol) is transferred to a sterile fermentation vessel. Growth of Candida tropicalis (ATCC20962) is inoculated to an initial OD600nm of about 1.0 with a 5% inoculum and growth carried out under the following conditions: 30° C. with shaking at about 1000 rpm, 1 volume per volume per minute aeration (vvm), pH 5.8 and initial volume of 0.3 L. Growth proceeds for approximately 8 hours and the conversion phase is initiated by the addition of decane to 2 g/L. Continuous feeds for decane (1 g/L-h) and glucose (1.5 g/L-h) are initiated at the same time as the addition of the decane bolus. Fermentation conditions are maintained at 30° C., 1000 rpm, 1 vvm, and pH 5.8 for 44 hours.
Samples were collected for GC analysis at 44 hours after initiating the conversion phase. […] Significant evaporative losses from the decane feed bottles prevented an accurate determination of product yield.

Series [6] has as its system Candida. In words: Toxicity of feedstock or by-product to the yeast (viable cell counts). The class given is cell-based. An excerpt: Methyl esters of fatty acids can be converted to the corresponding diacid by beta-oxidation-blocked strains of Candida since Candida produces an esterase that demethylates the fatty acid ester during the omega-oxidation process, allowing conversion of methyl decanoate into the non-toxic diacid, sebacic acid. Unfortunately, having an excess of methyl decanoate in the fermentation broth prior to induction of the enzymes involved in omega-oxidation process results in sufficient demethylation of methyl decanoate to produce toxic levels of decanoic acid, resulting in rapid cell death and a failed fermentation. The standard fermentation procedure would utilize the feedstock (methyl decanoate) as inducer.
Growth was initiated with an inoculum of pre-culture to an initial OD600nm=1.0 and growth conditions of 35° C., 1000 rpm, 1 vvm, pH 5.8. Growth continued for approximately 10-12 h at which point the conversion phase was induced by the addition of either: 1) a bolus of 10 g/L of decane (Sigma-Aldrich #457116) for 6 h after which a continuous feed of methyl decanoate (TCI America #D0023) at 0.25 g/L-h was initiated or 2) no addition of decane. Induction was performed by initiating a continuous feed of methyl decanoate at 0.25 g/L-h. Because of the volatility of decane, the aeration rate was reduced to 0.3 vvm during the 6-h induction phase with decane as inducer. […]

Regarding `CCCCCCCCCCCC(=O)O` [Lauric acid], the “toxicity to Candida” value with Candida [1] was “not as toxic to Candida as is decanoic acid”.
Consider `CCO` [ethanol], for which, in the series on strain sAA1082 [2], the “accumulation of HFA” value amounted to 5.3 g/L, the “accumulation of lauric acid” value is given as 8.5 g/L and the “accumulation of methyl laurate” value is 38 g/L. This compound displayed a DDDA productivity with strain sAA1082 [2] (methyl laurate feed) of 0.446 gL.
As for `CCCCCCCCCC(=O)OCC` [Ethyl decanoate], the “Feedstock Yield (g sebacic acid/g feedstock) ATCC 20962” value in series [3] is 0.685 g sebacic acid/g feedstock. Besides, the “% improvement over ATTC 20962 sAA1082” value in the series with strain sAA1082 [4] amounted to 58.9%. Moreover, the “Feedstock Yield (g sebacic acid/g feedstock) sAA1082” value with strain sAA1082 [4] (bioreactor, decane induction) is 1.088 g sebacic acid/g feedstock. Further, the “% improvement over ATTC 20962 sAA2178” value in the series with strain sAA2178 was 50.7%. For the same compound, in the series with strain sAA2178 (bioreactor, decane induction), the “Feedstock Yield (g sebacic acid/g feedstock) sAA2178” value is 1.032 g sebacic acid/g feedstock.
For `CCCCCCCCCC` [decane], the conversion of decane result in series [5] is “converted exclusively to the C10 dicarboxylic acid, sebacic acid”.
Regarding `CCCCCCCCCC(=O)OC` [methyl decanoate], in the series with Candida [1], the “toxicity to Candida” value is given as “very low toxicity”.
As to `CCCCCCCCCC(=O)O` [decanoic acid], in the series on Candida [6], the “toxicity to Candida (viable cell count data)” value is “demonstrates the toxicity”. In addition, the “toxicity to Candida” value in the series with Candida [1] is “high degree of toxicity”.
